Where a name gives a salt, the structure may show the parent alone. Read-outs that look alike come from different tables or passages of the source.
Tests used:
[1] = molecular target: baculovirus-expressed ALK (Homo sapiens, UniProt Q9UM73); test: ALK kinase inhibition, TRF/ELISA; format: biochemical; settings: read-out: ALK Potency
Summary of the method: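 Plates were coated with GST-PLC-γ substrate (10 μg/mL) and the reaction was started with 30 ng/mL ALK, running 15 min at 37° C. Phosphotyrosine was detected by time-resolved fluorescence with Eu-labeled PT66 antibody. IC50s came from variable-slope sigmoidal fits of percent inhibition versus log concentration.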

[2] = molecular target: baculovirus-expressed JAK2 kinase (Homo sapiens, UniProt O60674); test: biochemical; settings: 0.2 μM ATP; read-out: JAK2 Potency
Summary of the method: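 Time-resolved fluorescence kinase assay using 15 ng/mL baculovirus-expressed JAK2 on Neutravidin-captured biotinylated 15-mer peptide substrate, reaction 20 min at room temperature. IC50 from percent inhibition versus log concentration, sigmoidal variable-slope fit.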

baculovirus-expressed ALK, sequence (Q9UM73 19-1620): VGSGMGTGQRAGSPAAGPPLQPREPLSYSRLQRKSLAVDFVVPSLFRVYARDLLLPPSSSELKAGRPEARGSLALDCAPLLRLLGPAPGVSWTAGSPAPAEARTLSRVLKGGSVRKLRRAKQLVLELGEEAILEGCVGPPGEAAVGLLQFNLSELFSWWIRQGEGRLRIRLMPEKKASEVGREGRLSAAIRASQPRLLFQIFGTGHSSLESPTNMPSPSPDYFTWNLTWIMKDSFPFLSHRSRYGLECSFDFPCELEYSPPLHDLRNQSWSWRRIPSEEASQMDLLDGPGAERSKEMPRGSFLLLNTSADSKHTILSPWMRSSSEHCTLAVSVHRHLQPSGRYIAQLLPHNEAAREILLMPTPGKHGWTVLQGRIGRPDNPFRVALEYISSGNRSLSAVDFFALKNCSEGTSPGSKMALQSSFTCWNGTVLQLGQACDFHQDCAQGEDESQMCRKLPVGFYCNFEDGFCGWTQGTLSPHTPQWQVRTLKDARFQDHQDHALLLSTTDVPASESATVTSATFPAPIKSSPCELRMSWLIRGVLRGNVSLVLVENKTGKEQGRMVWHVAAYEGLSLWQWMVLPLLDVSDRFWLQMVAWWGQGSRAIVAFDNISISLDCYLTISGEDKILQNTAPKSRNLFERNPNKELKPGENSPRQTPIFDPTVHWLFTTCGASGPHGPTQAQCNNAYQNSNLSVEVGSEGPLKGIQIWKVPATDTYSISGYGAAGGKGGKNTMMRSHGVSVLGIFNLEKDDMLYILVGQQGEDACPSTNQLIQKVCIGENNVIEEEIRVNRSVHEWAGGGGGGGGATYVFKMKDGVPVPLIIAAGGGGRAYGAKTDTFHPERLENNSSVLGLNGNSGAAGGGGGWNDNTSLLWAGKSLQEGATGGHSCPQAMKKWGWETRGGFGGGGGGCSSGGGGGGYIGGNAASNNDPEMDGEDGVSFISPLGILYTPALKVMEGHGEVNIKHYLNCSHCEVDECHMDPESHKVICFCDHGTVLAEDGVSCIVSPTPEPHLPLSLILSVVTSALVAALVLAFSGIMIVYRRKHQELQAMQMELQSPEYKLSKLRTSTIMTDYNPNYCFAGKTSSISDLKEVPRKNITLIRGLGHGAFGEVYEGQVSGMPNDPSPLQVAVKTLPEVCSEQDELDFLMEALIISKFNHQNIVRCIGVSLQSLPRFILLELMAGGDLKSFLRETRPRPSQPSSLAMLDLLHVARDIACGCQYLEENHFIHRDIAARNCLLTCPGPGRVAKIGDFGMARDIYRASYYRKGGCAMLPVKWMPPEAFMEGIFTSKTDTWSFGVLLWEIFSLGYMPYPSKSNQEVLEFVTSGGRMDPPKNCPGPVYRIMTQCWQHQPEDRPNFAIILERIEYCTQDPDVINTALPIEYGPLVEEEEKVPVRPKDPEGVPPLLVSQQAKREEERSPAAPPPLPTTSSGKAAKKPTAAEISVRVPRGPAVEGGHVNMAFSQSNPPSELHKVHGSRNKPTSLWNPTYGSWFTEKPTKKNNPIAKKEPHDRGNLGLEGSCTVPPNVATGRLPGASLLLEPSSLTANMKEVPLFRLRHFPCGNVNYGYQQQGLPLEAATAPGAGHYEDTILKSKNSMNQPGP
baculovirus-expressed JAK2 kinase, sequence (O60674 whole entry): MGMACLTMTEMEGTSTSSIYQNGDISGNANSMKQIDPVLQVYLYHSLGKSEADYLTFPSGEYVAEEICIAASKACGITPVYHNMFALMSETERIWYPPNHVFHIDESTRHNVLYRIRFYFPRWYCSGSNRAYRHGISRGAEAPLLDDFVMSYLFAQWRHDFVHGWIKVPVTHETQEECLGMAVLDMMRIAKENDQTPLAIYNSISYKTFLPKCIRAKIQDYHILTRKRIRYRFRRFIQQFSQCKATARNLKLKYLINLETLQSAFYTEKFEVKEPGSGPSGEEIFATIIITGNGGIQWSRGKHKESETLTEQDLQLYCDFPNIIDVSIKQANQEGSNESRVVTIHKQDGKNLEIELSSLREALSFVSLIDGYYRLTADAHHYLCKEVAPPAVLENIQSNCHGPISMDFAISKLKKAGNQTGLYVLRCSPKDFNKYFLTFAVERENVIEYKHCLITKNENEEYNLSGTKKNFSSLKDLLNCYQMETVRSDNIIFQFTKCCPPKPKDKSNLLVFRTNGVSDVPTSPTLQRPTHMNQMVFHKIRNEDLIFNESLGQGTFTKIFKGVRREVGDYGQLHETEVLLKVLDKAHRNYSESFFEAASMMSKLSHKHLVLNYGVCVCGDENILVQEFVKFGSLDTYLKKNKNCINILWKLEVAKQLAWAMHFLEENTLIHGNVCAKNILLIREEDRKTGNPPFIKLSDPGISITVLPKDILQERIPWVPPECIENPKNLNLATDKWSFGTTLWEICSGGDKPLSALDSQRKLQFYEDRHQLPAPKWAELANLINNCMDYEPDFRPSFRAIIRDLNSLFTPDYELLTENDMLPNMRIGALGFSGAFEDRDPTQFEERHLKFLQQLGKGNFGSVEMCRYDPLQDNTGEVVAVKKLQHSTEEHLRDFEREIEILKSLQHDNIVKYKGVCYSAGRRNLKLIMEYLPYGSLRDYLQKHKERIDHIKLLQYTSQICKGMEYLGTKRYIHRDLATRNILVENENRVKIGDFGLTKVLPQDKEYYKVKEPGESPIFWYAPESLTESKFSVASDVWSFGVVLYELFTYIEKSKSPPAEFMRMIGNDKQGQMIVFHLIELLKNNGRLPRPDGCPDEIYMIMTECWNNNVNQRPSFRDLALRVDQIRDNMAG

IC50 [1]	IC50 [2]	IC50 ([1]; 1 μM ATP (Km level))	SMILES
< 100 nM	100 to 1000 nM	–	O=C(NC1CC1)[C@@H]1[C@H](Nc2c(Cl)cnc3[nH]c(-c4sc(N5CCCC5)nc4Cl)nc23)[C@H]2C=C[C@@H]1C2 [Compound CLXXII, (1S,2S,3R,4R)-3-[6-Chloro-2-(4-chloro-2-pyrrolidin-1-yl-thiazol-5-yl)-3H-imidazo[4,5-b]pyridin-7-ylamino]-bicyclo[2.2.1]hept-5-ene-2-carboxylic acid cyclopropylamide]
< 100 nM	< 100 nM	–	CN1CCN(c2ncc(-c3nc4c(N[C@H]5[C@@H](C(N)=O)[C@@H]6C=C[C@H]5C6)c(Cl)cnc4[nH]3)s2)CC1 [Compound CCXI, (1S,2S,3R,4R)-3-(6-chloro-2-(2-(4-methylpiperazin-1-yl)thiazol-5-yl)-3H-imidazo[4,5-b]pyridin-7-ylamino)bicyclo[2.2.1]hept-5-ene-2-carboxamide]
< 100 nM	< 100 nM	–	NC(=O)[C@@H]1[C@H](Nc2c(Cl)cnc3[nH]c(-c4ccc(OCCN5CCOCC5)cc4)nc23)[C@H]2C=C[C@@H]1C2 [Compound CCXXXIX, (1S,2S,3R,4R)-3-(6-chloro-2-(4-(2-morpholinoethoxy)phenyl)-3H-imidazo[4,5-b]pyridin-7-ylamino)bicyclo[2.2.1]hept-5-ene-2-carboxamide]
100 to 1000 nM	< 100 nM	–	NC(=O)[C@@H]1[C@H](Nc2c(Cl)cnc3[nH]c(-c4ccc(O)cc4)nc23)[C@H]2C=C[C@@H]1C2 [Compound CCXXXIV, (1S,2S,3R,4R)-3-(6-chloro-2-(4-hydroxyphenyl)-3H-imidazo[4,5-b]pyridin-7-ylamino)bicyclo[2.2.1]hept-5-ene-2-carboxamide]
100 to 1000 nM	< 100 nM	–	NC(=O)COc1cccc(-c2nc3c(N[C@H]4[C@@H](C(N)=O)[C@@H]5C=C[C@H]4C5)c(Cl)cnc3[nH]2)c1 [Compound CCXXXVIII, (1S,2S,3R,4R)-3-(2-(3-(2-amino-2-oxoethoxy)phenyl)-6-chloro-3H-imidazo[4,5-b]pyridin-7-ylamino)bicyclo[2.2.1]hept-5-ene-2-carboxamide]
–	> 10000 nM	> 10000 nM	NC(=O)[C@@H]1[C@H](Nc2c(Cl)cnc3[nH]c(C4CCCNC4)nc23)[C@H]2C=C[C@@H]1C2 (single isomer, unassigned) [XIV]
< 100 nM	< 100 nM	–	CN(C)c1ccc(-c2nc3c(N[C@H]4[C@@H](C(N)=O)[C@@H]5C=C[C@H]4C5)c(Cl)cnc3[nH]2)cc1 [Compound I, (1S,2S,3R,4R)-3-[6-Chloro-2-(4-dimethylamino-phenyl)-3H-imidazo[4,5-b]pyridin-7-ylamino]-bicyclo[2.2.1]hept-5-ene-2-carboxylic acid amide]
< 100 nM	< 100 nM	–	NC(=O)[C@@H]1[C@H](Nc2c(Cl)cnc3[nH]c(-c4cccc(C(=O)N5CCNCC5)c4)nc23)[C@H]2C=C[C@@H]1C2 [Compound CCXIX, (1S,2S,3R,4R)-3-(6-chloro-2-(3-(piperazine-1-carbonyl)phenyl)-3H-imidazo[4,5-b]pyridin-7-ylamino)bicyclo[2.2.1]hept-5-ene-2-carboxamide]
1000 to 10000 nM	> 10000 nM	–	NC(=O)[C@@H]1[C@H](Nc2c(Cl)cnc3[nH]c(-c4cccnc4N4CCOCC4)nc23)[C@H]2C=C[C@@H]1C2 [Compound XXXIV, (1S,2S,3R,4R)-3-[6-Chloro-2-(2-morpholin-4-yl-pyridin-3-yl)-3H-imidazo[4,5-b]pyridine-7-ylamino]-bicyclo[2.2.1]hept-5-ene-2-carboxylic acid amide]
< 100 nM	100 to 1000 nM	–	COc1cc(OC(F)(F)F)ccc1-c1nc2c(N[C@H]3[C@@H](C(N)=O)[C@@H]4C=C[C@H]3C4)c(Cl)cnc2[nH]1 [Compound XVIII, (1S,2S,3R,4R)-3-[6-Chloro-2-(2-methoxy-4-trifluoromethoxy-phenyl)-3H-imidazo[4,5-b]pyridine-7-ylamino]-bicyclo[2.2.1]hept-5-ene-2-carboxylic acid amide]
< 100 nM	< 100 nM	–	COc1cccc(-c2nc3c(N[C@H]4[C@@H](C(N)=O)[C@@H]5C=C[C@H]4C5)c(Cl)cnc3[nH]2)n1 [Compound CXXIV, (1S,2S,3R,4R)-3-[6-Chloro-2-(6-methoxy-pyridin-2-yl)-3H-imidazo[4,5-b]pyridin-7-ylamino]-bicyclo[2.2.1]hept-5-ene-2-carboxylic acid amide]
100 to 1000 nM	< 100 nM	–	NC(=O)[C@@H]1[C@H](Nc2c(Cl)cnc3[nH]c(-c4cccc(O)c4)nc23)[C@H]2C=C[C@@H]1C2 [Compound CCXXXIII, (1S,2S,3R,4R)-3-(6-chloro-2-(3-hydroxyphenyl)-3H-imidazo[4,5-b]pyridin-7-ylamino)pyridin[2.2.1]hept-5-ene-2-carboxamide]
100 to 1000 nM	< 100 nM	–	NC(=O)[C@@H]1[C@H](Nc2c(Br)cnc3[nH]c(-c4cccc(Cl)c4)nc23)[C@H]2C=C[C@@H]1C2 [Compound CXLII, (1S,2S,3R,4R)-3-[6-Bromo-2-(3-chloro-phenyl)-3H-imidazo[4,5-b]pyridin-7-ylamino]-bicyclo[2.2.1]hept-5-ene-2-carboxylic acid amide]
< 100 nM	< 100 nM	–	NC(=O)[C@@H]1[C@H](Nc2c(Cl)cnc3[nH]c(-c4ccc(CN5CCOCC5)cc4)nc23)[C@H]2C=C[C@@H]1C2 [Compound III, (1S,2S,3R,4R)-3-[6-Chloro-2-(4-morpholin-4-ylmethyl-phenyl)-3H-imidazo[4,5-b]pyridine-7-ylamino]-bicyclo[2.2.1]hept-5-ene-2-carboxylic acid amide-trifluoroacetate salt]
100 to 1000 nM	< 100 nM	–	CC(C)(C)OC(=O)N1CCC(n2cc(-c3nc4c(N[C@H]5[C@@H](C(N)=O)[C@@H]6C=C[C@H]5C6)c(Cl)cnc4[nH]3)cn2)CC1 [Compound L, 4-{4-[7-((1R,2R,3S,4S)-3-Carbamoyl-bicyclo[2.2.1]hept-5-en-2-ylamino)-6-chloro-3H-imidazo[4,5-b]pyridine-2-yl]-pyrazol-1-yl}-piperidine-1-carboxylic acid tert-butyl ester]
< 100 nM	< 100 nM	–	Cc1nn(C)c(C)c1-c1nc2c(N[C@H]3[C@@H](C(N)=O)[C@@H]4C=C[C@H]3C4)c(Br)cnc2[nH]1 [Compound CLII, (1S,2S,3R,4R)-3-[6-Bromo-2-(1,3,5-trimethyl-1H-pyrazol-4-yl)-3H-imidazo[4,5-b]pyridin-7-ylamino]-bicyclo[2.2.1]hept-5-ene-2-carboxylic acid amide]
< 100 nM	< 100 nM	–	NC(=O)[C@@H]1[C@H](Nc2c(Br)cnc3[nH]c(-c4ccc(CN5CCOCC5)cc4)nc23)[C@H]2C=C[C@@H]1C2 [Compound LXXX, (1S,2S,3R,4R)-3-[6-Bromo-2-(4-morpholin-4-ylmethyl-phenyl)-3H-imidazo[4,5-b]pyridin-7-ylamino]-bicyclo[2.2.1]hept-5-ene-2-carboxylic acid amide]
1000 to 10000 nM	< 100 nM	–	NC(=O)[C@@H]1[C@H](Nc2c(Cl)cnc3[nH]c(-c4ccc(N5CCOCC5)cc4)nc23)[C@H]2CC[C@@H]1O2 [Compound CCIV, (1S,2R,3S,4R)-3-(6-chloro-2-(4-morpholinophenyl)-3H-imidazo[4,5-b]pyridin-7-ylamino)-7-oxabicyclo[2.2.1]heptane-2-carboxamide]
< 100 nM	< 100 nM	–	CC(O)CN1CCN(C(=O)COc2ccc(-c3nc4c(N[C@H]5[C@@H](C(N)=O)[C@@H]6C=C[C@H]5C6)c(Cl)cnc4[nH]3)cc2)CC1 (stereo partly drawn) [Compound CCXLII, (1S,2S,3R,4R)-3-(6-chloro-2-(4-(2-(4-(2-hydroxypropyl)piperazin-1-yl)-2-oxoethoxy)phenyl)-3H-imidazo[4,5-b]pyridin-7-ylamino)bicyclo[2.2.1]hept-5-ene-2-carboxamide]
< 100 nM	< 100 nM	–	CN(C)CCNC(=O)c1ccc(-c2nc3c(N[C@H]4[C@@H](C(N)=O)[C@@H]5C=C[C@H]4C5)c(Cl)cnc3[nH]2)cc1 [Compound CCXXXII, (1S,2S,3R,4R)-3-{6-Chloro-2-[4-(2-dimethylamino-ethylcarbamoyl)-phenyl]-3H-imidazo[4,5-b]pyridine-7-ylamino}-bicyclo[2.2.1]hept-5-ene-2-carboxylic acid amide]
100 to 1000 nM	< 100 nM	–	NC(=O)[C@@H]1[C@H](Nc2c(Cl)cnc3[nH]c(-c4ccnc(N5CCOCC5)c4)nc23)[C@H]2C=C[C@@H]1C2 [Compound CXXVI, (1S,2S,3R,4R)-3-[6-Chloro-2-(2-morpholin-4-yl-pyridin-4-yl)-3H-imidazo[4,5-b]pyridin-7-ylamino]-bicyclo[2.2.1]hept-5-ene-2-carboxylic acid amide]
< 100 nM	1000 to 10000 nM	–	COc1cc(CN2CCOCC2)ccc1-c1nc2c(N[C@@H]3CCCC[C@H]3NS(C)(=O)=O)c(Cl)cnc2[nH]1 [Compound LXX, N-{(1R,2R)-2-[6-Chloro-2-(2-methoxy-4-morpholin-4-ylmethyl-phenyl)-3H-imidazo[4,5-b]pyridine-7-ylamino]-cyclohexyl}-methanesulfonamide]
< 100 nM	< 100 nM	–	CC(O)CN1CCC(Oc2cccc(-c3nc4c(N[C@H]5[C@@H](C(N)=O)[C@@H]6C=C[C@H]5C6)c(Cl)cnc4[nH]3)c2)CC1 (stereo partly drawn) [Compound CCLI, (1S,2S,3R,4R)-3-(6-chloro-2-(3-(1-(2-hydroxypropyl)piperidin-4-yloxy)phenyl)-3H-imidazo[4,5-b]pyridine-7-ylamino)pyridin[2.2.1]hept-5-ene-2-carboxamide]
< 100 nM	< 100 nM	–	CC(O)CN1CCC(Oc2ccc(-c3nc4c(N[C@H]5[C@@H](C(N)=O)[C@@H]6C=C[C@H]5C6)c(Cl)cnc4[nH]3)cc2)CC1 (stereo partly drawn) [Compound CCLII, (1S,2S,3R,4R)-3-(6-chloro-2-(4-(1-(2-hydroxypropyl)piperidin-4-yloxy)phenyl)-3H-imidazo[4,5-b]pyridin-7-ylamino)bicyclo[2.2.1]hept-5-ene-2-carboxamide]
